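Dose response: 5 concentrations. Exposure: 48 h. Format: 96-well plates. Endpoint: linear interpolation; highest concentration if not reached. Abbreviation: GI50, concentration required for 50% inhibition of growth. TGI is the concentration that stops growth completely.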 Some results are limits rather than exact numbers.

GI50 and TGI data for eight molecules are collected here from PubChem BioAssay (NCI).

Test systems include PC-3 prostate; NCI/ADR-RES ovarian; HCT-116 colon; A498 renal; OVCAR-4 ovarian; M14 melanoma; SK-MEL-2 melanoma; NCI-H226 lung; SNB-19 CNS; TK-10 renal.
Common to all, as to experiment: inhibition of tumour cell growth, NCI panel, 48 h

As for `Brc1ccc(Br)nn1`, the GI50 with PC-3 prostate is 4.41 µM; with NCI/ADR-RES ovarian, 2 µM; in the test with HCT-116 colon, 1.48 µM; with A498 renal it was 3.42 µM; with OVCAR-4 ovarian it was 1.29 µM; with M14 melanoma, 1.39 µM. Besides, the GI50 in the test on SK-MEL-2 melanoma is 2.91 µM; with NCI-H226 lung, 2.28 µM; with SNB-19 CNS, 3.77 µM; in the test on TK-10 renal it was 2.56 µM. In addition, the TGI in the test on PC-3 prostate was found to be 22 µM; with NCI/ADR-RES ovarian it was 5.78 µM; with HCT-116 colon, 2.84 µM; in the test with A498 renal it was 17.5 µM; with OVCAR-4 ovarian it was 2.77 µM; with M14 melanoma, 2.82 µM. Moreover, the TGI worked out at 20.4 µM in the test with SK-MEL-2 melanoma, 5.57 µM in the test on NCI-H226 lung, 15.5 µM with SNB-19 CNS and 6.37 µM in the test on TK-10 renal.

Turning to `C=C1C(=O)OC2CC3(C)OC3C3OC3C3=CC(OC3=O)C12` (centres undefined), the GI50 was 15.9 µM with PC-3 prostate; 27.2 µM in the test on NCI/ADR-RES ovarian; 1.67 µM with HCT-116 colon; 15.8 µM in the test with A498 renal; 2.14 µM with OVCAR-4 ovarian; 8.75 µM in the test on M14 melanoma. The GI50 was 15.4 µM in the test with SK-MEL-2 melanoma, 8.82 µM in the test on NCI-H226 lung, more than 100 µM in the test on SNB-19 CNS and 1.91 µM in the test with TK-10 renal. Besides, the TGI turned out to be 32.9 µM in the test on PC-3 prostate; 69.3 µM with NCI/ADR-RES ovarian; 3.15 µM with HCT-116 colon; 30.5 µM in the test with A498 renal; 4.86 µM in the test with OVCAR-4 ovarian; 24.2 µM with M14 melanoma. The TGI in the test with SK-MEL-2 melanoma was 36.4 µM; with NCI-H226 lung, 28.5 µM; with SNB-19 CNS, more than 100 µM; in the test on TK-10 renal, 3.39 µM.

With `COc1ccc(C2C3=C(COC3=O)N(CCO)c3cc4c(cc32)OCCO4)cc1OC` (centres undefined), the GI50 in the test on PC-3 prostate was 1.58 µM; in the test on NCI/ADR-RES ovarian, 11.4 µM; with HCT-116 colon it was 1.96 µM; in the test on A498 renal it was 1.61 µM; with OVCAR-4 ovarian, 3.67 µM; with M14 melanoma, 1.94 µM. Also, the GI50 was 0.979 µM with SK-MEL-2 melanoma, more than 50 µM with NCI-H226 lung and more than 10.2 µM in the test with TK-10 renal. For the same molecule, the TGI in the test with PC-3 prostate is more than 50 µM; with NCI/ADR-RES ovarian, more than 50 µM; in the test on HCT-116 colon, more than 50 µM; in the test with A498 renal, more than 15.6 µM; in the test on OVCAR-4 ovarian, more than 50 µM; with M14 melanoma, more than 30.7 µM. For the same molecule, the TGI in the test on SK-MEL-2 melanoma is 3.65 µM; with NCI-H226 lung, more than 50 µM; in the test on SNB-19 CNS, more than 30.5 µM; in the test on TK-10 renal, more than 36.3 µM.

Regarding `O=C1c2ccccc2C(=O)c2c(NC(=O)c3ccc4c5c(ncnc35)-c3ccccc3C4=O)cccc21`, the TGI with PC-3 prostate, in the test with NCI/ADR-RES ovarian, with HCT-116 colon, in the test on A498 renal, in the test with OVCAR-4 ovarian and in the test on M14 melanoma was more than 100 µM each time. Moreover, the TGI was more than 100 µM in the test with SK-MEL-2 melanoma, more than 100 µM in the test on NCI-H226 lung, more than 100 µM in the test with SNB-19 CNS and 47.6 µM in the test with TK-10 renal.

Regarding `CN(C)CCOc1nc2ccccc2c2c1-c1ccc(Cl)cc1C2=O`, the GI50 in the test on PC-3 prostate was 1.34 µM; in the test with NCI/ADR-RES ovarian it was 0.696 µM; in the test on HCT-116 colon, 0.422 µM; with A498 renal it was 1.19 µM; with OVCAR-4 ovarian, 0.927 µM; in the test with M14 melanoma, 1.12 µM. Besides, the GI50 with SK-MEL-2 melanoma was 2.34 µM; in the test with NCI-H226 lung, 0.735 µM; in the test with SNB-19 CNS, 0.46 µM; with TK-10 renal, 1.36 µM. Besides, the TGI in the test with PC-3 prostate was found to be 7.69 µM; in the test on NCI/ADR-RES ovarian it was 4.4 µM; with HCT-116 colon, 1.52 µM; with A498 renal it was 2.87 µM; in the test on OVCAR-4 ovarian, 4.04 µM; with M14 melanoma it was 2.72 µM. The TGI in the test with SK-MEL-2 melanoma is 4.68 µM; in the test with NCI-H226 lung, 8.65 µM; with SNB-19 CNS it was 2.14 µM; in the test on TK-10 renal, 3.18 µM.

For `C=C=[CH][Sn]([c]1ccccc1)([c]1ccccc1)[c]1ccccc1`, the GI50 was 1.46 µM in the test with PC-3 prostate; 2.19 µM in the test with NCI/ADR-RES ovarian; 0.866 µM in the test with HCT-116 colon; 1.24 µM with A498 renal; 1.47 µM with OVCAR-4 ovarian; 1.81 µM in the test with M14 melanoma. Further, the GI50 was 1.84 µM in the test on SK-MEL-2 melanoma, 2.28 µM in the test on NCI-H226 lung, 1.81 µM with SNB-19 CNS and 1.65 µM in the test with TK-10 renal. For the same molecule, the TGI in the test on PC-3 prostate was 3.68 µM; with NCI/ADR-RES ovarian it was 5.94 µM; in the test on HCT-116 colon, 2.27 µM; in the test on A498 renal it was 2.56 µM; in the test with OVCAR-4 ovarian, 3.38 µM; in the test with M14 melanoma it was 3.47 µM. Besides, the TGI in the test on SK-MEL-2 melanoma worked out at 3.71 µM; with NCI-H226 lung it was 4.6 µM; in the test on SNB-19 CNS, 3.34 µM; in the test with TK-10 renal, 3.1 µM.

Take `C[C@@H]1CN2[C@H]3[C@@H]1CC[C@]31CCC(=O)O[C@]1(C)[C@@H]1CC[C@H]3CCC=C3[C@@H]12`: the GI50 in the test with PC-3 prostate, in the test on NCI/ADR-RES ovarian, with HCT-116 colon, in the test with A498 renal, in the test with OVCAR-4 ovarian and in the test on M14 melanoma was more than 70 µM throughout. In addition, the GI50 in the test with SK-MEL-2 melanoma, with NCI-H226 lung, with SNB-19 CNS and in the test on TK-10 renal was more than 70 µM throughout. Further, the TGI in the test with PC-3 prostate, in the test with NCI/ADR-RES ovarian, in the test on HCT-116 colon, with A498 renal, in the test on OVCAR-4 ovarian and in the test with M14 melanoma was more than 70 µM each time. Besides, the TGI with SK-MEL-2 melanoma, in the test with NCI-H226 lung, in the test on SNB-19 CNS and with TK-10 renal was more than 70 µM each time.

On to `CCNCCNc1cc(-c2cccc(C(F)(F)F)c2)c(C#N)c2nc3ccccc3n12`, for which the GI50 in the test on PC-3 prostate is 1.83 µM; in the test with NCI/ADR-RES ovarian it was 1.81 µM; in the test with HCT-116 colon, 0.239 µM; with A498 renal it was 1.64 µM; in the test with OVCAR-4 ovarian, 1.6 µM; in the test on M14 melanoma, 1.71 µM. Besides, the GI50 with SK-MEL-2 melanoma is 1.87 µM; in the test with NCI-H226 lung it was 1.64 µM; in the test with SNB-19 CNS it was 1.99 µM; in the test with TK-10 renal, 2.14 µM. For the same molecule, the TGI worked out at 3.54 µM with PC-3 prostate; 3.86 µM in the test with NCI/ADR-RES ovarian; 0.515 µM in the test with HCT-116 colon; 3.08 µM with A498 renal; 3.24 µM with OVCAR-4 ovarian; 3.25 µM in the test with M14 melanoma. For the same molecule, the TGI in the test on SK-MEL-2 melanoma turned out to be 3.59 µM; in the test on NCI-H226 lung, 3.64 µM; in the test on SNB-19 CNS, 3.97 µM; in the test on TK-10 renal it was 3.69 µM.
